# Data reported in ChEMBL document CHEMBL1201862, “PubChem BioAssay data set” (2004).
#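 Each compound was tested at five concentrations against cells in 96-well plates for 48 hours. GI50 is the concentration that inhibits growth by half.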 Active and inactive are the calls of the source. No stated cut-off is given here; in the data, active = GI50 up to about 1.1 µM and inactive = higher.
# What was measured:
# Assay in all cases: NCI tumour cell line growth inhibition, 48 h
# NCI-H226 = system: NCI-H226
# UACC-62 = system: UACC-62
# A549 = system: A549
# SN12C = system: SN12C
# UACC-257 = system: UACC-257
# SK-MEL-5 = system: SK-MEL-5
# RPMI-8226 = system: RPMI-8226
# PC-3 = system: PC-3
# KM12 = system: KM12
# MDA-N = system: MDA-N
# LOX IMVI = system: LOX IMVI
# UO-31 = system: UO-31
# SK-OV-3 = system: SK-OV-3
# SF-295 = system: SF-295
# HL-60 = system: HL-60
# 786-0 = system: 786-0
# SW-620 = system: SW-620
# K562 = system: K562
# HT-29 = system: HT-29
# NCI-H460 = system: NCI-H460
SMILES,GI50 (NCI-H226),GI50 (UACC-62),GI50 (A549),GI50 (SN12C),GI50 (UACC-257),GI50 (SK-MEL-5),GI50 (RPMI-8226),GI50 (PC-3),GI50 (KM12),GI50 (MDA-N),GI50 (LOX IMVI),GI50 (UO-31),GI50 (SK-OV-3),GI50 (SF-295),GI50 (HL-60),GI50 (786-0),GI50 (SW-620),GI50 (K562),GI50 (HT-29),GI50 (NCI-H460)
CC(=O)C1C(=O)C(C(C)=O)C2C3C=CC(C3)C12 (stereo not given),> 100 µM (inactive),> 100 µM (inactive),> 100 µM (inactive),> 100 µM (inactive),> 100 µM (inactive),> 100 µM (inactive),> 100 µM (inactive),> 100 µM (inactive),> 100 µM (inactive),> 100 µM (inactive),> 100 µM (inactive),> 100 µM (inactive),> 100 µM (inactive),> 100 µM (inactive),> 100 µM (inactive),> 100 µM (inactive),> 100 µM (inactive),> 100 µM (inactive),> 100 µM (inactive),> 100 µM (inactive)
Cc1ccccc1-n1c(=O)nc2n(-c3ccc(C(C)(C)C)cc3)c3ccccc3cc-2c1=O,18.8 µM (inactive),19.2 µM (inactive),31.3 µM (inactive),17.7 µM (inactive),17.2 µM (inactive),15.1 µM (inactive),24.2 µM (inactive),19.8 µM (inactive),15.3 µM (inactive),22.6 µM (inactive),15.6 µM (inactive),26.4 µM (inactive),–,20.4 µM (inactive),20.3 µM (inactive),24.4 µM (inactive),15.9 µM (inactive),37.8 µM (inactive),16.5 µM (inactive),15.3 µM (inactive)
O=P1(c2ccccc2)c2ccccc2CCc2ccccc21,> 100 µM (inactive),78.7 µM (inactive),86.5 µM (inactive),81.1 µM (inactive),> 100 µM (inactive),44.9 µM (inactive),50.6 µM (inactive),50.5 µM (inactive),56.1 µM (inactive),38.7 µM (inactive),> 100 µM (inactive),53.3 µM (inactive),58.2 µM (inactive),45.5 µM (inactive),16.6 µM (inactive),> 100 µM (inactive),> 100 µM (inactive),–,–,–
O=C(CN1CCOCC1)CC(O)(C(F)(F)F)C(F)(F)F,> 100 µM (inactive),44.6 µM (inactive),> 100 µM (inactive),–,> 100 µM (inactive),47.6 µM (inactive),55.2 µM (inactive),32.1 µM (inactive),77.8 µM (inactive),> 100 µM (inactive),46 µM (inactive),51.3 µM (inactive),> 100 µM (inactive),67 µM (inactive),61.7 µM (inactive),> 100 µM (inactive),48.9 µM (inactive),55.1 µM (inactive),> 10 µM (inactive),–
CCc1ccc2oc(-c3cc(O)c(-c4nc5cc(CC)ccc5o4)cc3O)nc2c1,> 100 µM (inactive),> 100 µM (inactive),> 100 µM (inactive),> 100 µM (inactive),–,> 100 µM (inactive),> 100 µM (inactive),> 100 µM (inactive),–,> 100 µM (inactive),> 100 µM (inactive),> 100 µM (inactive),> 100 µM (inactive),–,> 100 µM (inactive),> 100 µM (inactive),> 100 µM (inactive),> 100 µM (inactive),–,> 100 µM (inactive)
CC(C)(C)C1=C(Br)C(F)(C(C)(C)C)OP1(=O)c1ccccc1 (stereo not given),15.1 µM (inactive),15.3 µM (inactive),19.3 µM (inactive),16 µM (inactive),16.7 µM (inactive),11 µM (inactive),< 0.01 µM (active),18 µM (inactive),18.9 µM (inactive),20 µM (inactive),19.3 µM (inactive),45.7 µM (inactive),18 µM (inactive),21.6 µM (inactive),2.79 µM (inactive),16.1 µM (inactive),17.5 µM (inactive),10 µM (inactive),19 µM (inactive),19.1 µM (inactive)
COC(=O)c1cc2c(c3c1CC(Cc1ccccc1)C3=O)CCC2 (stereo not given),> 100 µM (inactive),32.7 µM (inactive),53.6 µM (inactive),78.2 µM (inactive),> 100 µM (inactive),64.4 µM (inactive),59.8 µM (inactive),> 100 µM (inactive),18.4 µM (inactive),> 100 µM (inactive),45.9 µM (inactive),–,80.5 µM (inactive),> 100 µM (inactive),> 100 µM (inactive),71.8 µM (inactive),> 100 µM (inactive),38.1 µM (inactive),74.1 µM (inactive),71.1 µM (inactive)
CS(=O)(=O)c1nc(-c2cc3c(c(S(C)(=O)=O)n2)CCC3)cc2c1CCCC2,> 100 µM (inactive),14.4 µM (inactive),> 100 µM (inactive),> 100 µM (inactive),> 100 µM (inactive),> 100 µM (inactive),> 100 µM (inactive),> 100 µM (inactive),> 100 µM (inactive),> 100 µM (inactive),18.7 µM (inactive),7.71 µM (inactive),24.4 µM (inactive),29.7 µM (inactive),> 100 µM (inactive),35.3 µM (inactive),> 100 µM (inactive),> 100 µM (inactive),> 100 µM (inactive),–
c1ccc(-c2cc(-c3ccccc3)nc(-c3ccncc3)c2)cc1,58.5 µM (inactive),> 100 µM (inactive),> 100 µM (inactive),> 100 µM (inactive),99.8 µM (inactive),57.1 µM (inactive),> 100 µM (inactive),> 100 µM (inactive),96.4 µM (inactive),> 100 µM (inactive),> 100 µM (inactive),> 100 µM (inactive),> 100 µM (inactive),57.1 µM (inactive),> 100 µM (inactive),18 µM (inactive),> 100 µM (inactive),> 100 µM (inactive),–,–
COc1ccc(/N=N/C(=O)NC(CC(C)C)C(=O)NCC(=O)O)cc1 (stereo not given),> 41 µM (inactive),1.61 µM (inactive),3.29 µM (inactive),> 46.8 µM (inactive),32.8 µM (inactive),3.79 µM (inactive),11.7 µM (inactive),4.17 µM (inactive),3.76 µM (inactive),26.6 µM (inactive),1.37 µM (inactive),1.04 µM (active),> 100 µM (inactive),5.53 µM (inactive),5.9 µM (inactive),> 100 µM (inactive),12.8 µM (inactive),0.451 µM (active),14.8 µM (inactive),6.65 µM (inactive)
CC(C)=CCC[C@@H](C)C1=C(O)C(=O)C(C)=C(c2c(I)c(=O)n(C)c(=O)n2C)C1=O,> 100 µM (inactive),–,61 µM (inactive),> 100 µM (inactive),> 100 µM (inactive),–,61 µM (inactive),49.7 µM (inactive),> 100 µM (inactive),> 100 µM (inactive),> 100 µM (inactive),> 100 µM (inactive),> 100 µM (inactive),> 100 µM (inactive),74.6 µM (inactive),> 100 µM (inactive),> 100 µM (inactive),61.9 µM (inactive),> 100 µM (inactive),> 100 µM (inactive)
COc1cc(C(=O)Oc2c(C#N)sc3c2c(=O)n(-c2ccccc2)c(=S)n3-c2ccccc2)cc(OC)c1OC,4.73 µM (inactive),24.1 µM (inactive),21.5 µM (inactive),13.8 µM (inactive),35.2 µM (inactive),17.3 µM (inactive),9.08 µM (inactive),17.1 µM (inactive),18.9 µM (inactive),20.2 µM (inactive),19.9 µM (inactive),–,22 µM (inactive),4.14 µM (inactive),18.8 µM (inactive),15.2 µM (inactive),24.2 µM (inactive),23.5 µM (inactive),3.4 µM (inactive),21.9 µM (inactive)
CS(=O)(=O)O[C@H]1[C@H](O)c2ccccc2[C@@H]1N=[N+]=[N-],> 100 µM (inactive),> 100 µM (inactive),> 100 µM (inactive),> 100 µM (inactive),> 100 µM (inactive),> 100 µM (inactive),> 100 µM (inactive),> 100 µM (inactive),> 100 µM (inactive),> 100 µM (inactive),> 100 µM (inactive),> 100 µM (inactive),> 100 µM (inactive),> 100 µM (inactive),> 100 µM (inactive),> 100 µM (inactive),> 100 µM (inactive),> 100 µM (inactive),> 100 µM (inactive),> 100 µM (inactive)
Cc1cccc2c1CC1(C2)Cc2c(C)cccc2C1=O (stereo not given),26.8 µM (inactive),–,22.4 µM (inactive),23.2 µM (inactive),23 µM (inactive),18.2 µM (inactive),14.8 µM (inactive),31.7 µM (inactive),25.2 µM (inactive),26.9 µM (inactive),17.5 µM (inactive),23.1 µM (inactive),29.8 µM (inactive),27.9 µM (inactive),26.7 µM (inactive),23.8 µM (inactive),29.9 µM (inactive),26.5 µM (inactive),29.9 µM (inactive),22.7 µM (inactive)
CC(=O)O[C@H]1C(=O)[C@@]2(C)C(C(OC(=O)c3ccccc3)[C@]3(O)CC(OC(=O)C(O)C(NC(=O)c4cccc(Cl)c4)c4ccccc4)C(C)=C1C3(C)C)[C@]1(OC(C)=O)CO[C@@H]1C[C@@H]2O (stereo not given in full),> 10 µM (inactive),–,0.693 µM (active),0.628 µM (active),2.09 µM (inactive),0.42 µM (active),0.405 µM (active),1.53 µM (inactive),0.507 µM (active),0.0914 µM (active),0.841 µM (active),–,3.67 µM (inactive),1.15 µM (inactive),0.148 µM (active),0.728 µM (active),0.838 µM (active),0.562 µM (active),0.269 µM (active),0.419 µM (active)
